Experimental data taken from patent US20260022142A1, “MACROCYCLIC IMMUNOMODULATORS” (Bristol-Myers Squibb Company, priority 2022, published 2026).
Bridge positions count the residues as written; N and C are the ends. Square brackets hold non-standard residues; d marks the D form. Peptide text beside a SMILES is read from it. * marks the point of attachment. Phe(3-COOH) = N[C@@H](Cc1cccc(C(=O)O)c1)C(=O)O; Phe(4-CONH2) = NC(=O)c1ccc(C[C@H](N)C(=O)O)cc1; Phe(4-COOH) = N[C@@H](Cc1ccc(C(=O)O)cc1)C(=O)O; Phe(4-CH2NH2) = NCc1ccc(C[C@H](N)C(=O)O)cc1; Bip = N[C@@H](Cc1ccc(-c2ccccc2)cc1)C(=O)O; Phe(4-NH2) = Nc1ccc(C[C@H](N)C(=O)O)cc1; Phe(3-Me) = Cc1cccc(C[C@H](N)C(=O)O)c1; Phe(2-Me) = Cc1ccccc1C[C@H](N)C(=O)O; Cha = N[C@@H](CC1CCCCC1)C(=O)O; Carboxymethyl = O=C(O)C*; Orn = NCCC[C@H](N)C(=O)O; Aun = NCCCCCCCCCCC(=O)O; Dab = NCC[C@H](N)C(=O)O; Dap = NC[C@H](N)C(=O)O; AEEA = NCCOCCOCC(=O)O

biological target: T1, PD-1/PD-L1 interaction (PE-labeled human PD-L1-Ig binding to Jurkat cell line over-expressing human PD-1) (Homo sapiens, UniProt Q15116); assay: Jurkat-PD-1 Cell Binding High-Content Screening Assay (CBA); format: cell-based; conditions: Jurkat cell line over-expressing human PD-1; PE-labeled PD-L1-Ig 20 nM final; read-out: Jurkat hPD1-PDL1 IC50
T1 construct: expressed in transfected cells; host or cells: Jurkat
T1 sequence (Q15116 25-288): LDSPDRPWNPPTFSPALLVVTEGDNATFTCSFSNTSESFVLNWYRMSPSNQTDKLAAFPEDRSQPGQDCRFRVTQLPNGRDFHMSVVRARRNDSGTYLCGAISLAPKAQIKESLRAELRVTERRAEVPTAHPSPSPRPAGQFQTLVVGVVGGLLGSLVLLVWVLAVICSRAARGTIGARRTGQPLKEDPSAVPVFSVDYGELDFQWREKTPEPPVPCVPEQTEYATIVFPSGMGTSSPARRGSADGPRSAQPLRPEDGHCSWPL
How it was run: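 Read-out is high-content imaging of cell-bound phycoerythrin-tagged PD-L1-Ig on fixed, Hoechst-counterstained Jurkat cells that over-express human PD-1. Compound exposure lasts 2 h at 37° C before the labeled ligand (20 nM final) is added for a further hour.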

| Structure (SMILES) | IC50 |
| --- | --- |
| Cc1cccc(C[C@@H]2NC(=O)[C@H](CC(=O)O)NC(=O)[C@H](Cc3ccc(OCC(=O)O)cc3)NC(=O)[C@H](CN)NC(=O)CSC[C@@H](C(=O)N[C@@H](CCN)C(=O)NCCOCCOCC(=O)NCCCCCCCCCCC(=O)O)NC(=O)[C@H](CCCN)NC(=O)[C@H](C(C)C)NC(=O)[C@H](CC3CCCCC3)NC(=O)[C@H](CCN)NC(=O)[C@@H](CC(C)C)NC(=O)[C@H](CCCN)NC(=O)[C@H](Cc3ccc(C(=O)O)cc3)NC(=O)[C@H](Cc3ccc(-c4ccccc4)cc3)NC(=O)[C@H](C(C)C)NC2=O)c1 [Compound 2062] ({CH2CO}-[Dap]Y(Carboxymethyl)D[Phe(3-Me)]V[Bip][Phe(4-COOH)][Orn][dL][Dab][Cha]V[Orn]C[Dab][AEEA][Aun]-OH; thioether N-14) | 7 nM |
| Cc1cccc(C[C@@H]2NC(=O)[C@H](CC(=O)O)NC(=O)[C@H](Cc3ccc(OCC(=O)O)cc3)NC(=O)[C@H](CN)NC(=O)CSC[C@@H](C(=O)N[C@@H](CCN)C(=O)NCCOCCOCC(=O)NCCCCCCCCCCC(=O)O)NC(=O)[C@H](CCCN)NC(=O)[C@H](C(C)C)NC(=O)[C@H](CC3CCCCC3)NC(=O)[C@H](CCN)NC(=O)[C@@H](CC(C)C)NC(=O)[C@H](CCCN)NC(=O)[C@H](Cc3ccc(O)cc3)NC(=O)[C@H](Cc3ccc(-c4ccccc4)cc3)NC(=O)[C@H](Cc3cccc(C(=O)O)c3)NC2=O)c1 [Compound 2064] ({CH2CO}-[Dap]Y(Carboxymethyl)D[Phe(3-Me)][Phe(3-COOH)][Bip]Y[Orn][dL][Dab][Cha]V[Orn]C[Dab][AEEA][Aun]-OH; thioether N-14) | 15.4 nM |
| Cc1cccc(C[C@@H]2NC(=O)[C@H](CC(=O)O)NC(=O)[C@H](Cc3ccc(OCC(=O)O)cc3)NC(=O)[C@H](CN)NC(=O)CSC[C@@H](C(=O)N[C@@H](CCN)C(=O)NCCOCCOCC(=O)NCCCCCCCCCCC(=O)O)NC(=O)[C@H](CCCN)NC(=O)[C@H](C(C)C)NC(=O)[C@H](CC3CCCCC3)NC(=O)[C@H](CCN)NC(=O)[C@@H](CC(C)C)NC(=O)[C@H](CCCN)NC(=O)[C@H](Cc3ccc(O)cc3)NC(=O)[C@H](Cc3ccc(-c4ccccc4)cc3)NC(=O)[C@H](Cc3ccc(CN)cc3)NC2=O)c1 [Compound 2067] ({CH2CO}-[Dap]Y(Carboxymethyl)D[Phe(3-Me)][Phe(4-CH2NH2)][Bip]Y[Orn][dL][Dab][Cha]V[Orn]C[Dab][AEEA][Aun]-OH; thioether N-14) | 53.2 nM |
| Cc1cccc(C[C@@H]2NC(=O)[C@H](CC(=O)O)NC(=O)[C@H](Cc3ccc(OCC(=O)O)cc3)NC(=O)[C@H](CN)NC(=O)CSC[C@@H](C(=O)N[C@@H](CCN)C(=O)NCCOCCOCC(=O)NCCCCCCCCCCC(=O)O)NC(=O)[C@H](CCCN)NC(=O)[C@H](C(C)C)NC(=O)[C@H](CC3CCCCC3)NC(=O)[C@H](CCN)NC(=O)[C@@H](CC(C)C)NC(=O)[C@H](CCCN)NC(=O)[C@H](Cc3ccc(O)cc3)NC(=O)[C@H](Cc3ccc(-c4ccccc4)cc3)NC(=O)[C@H](Cc3ccccc3C)NC2=O)c1 [Compound 2069] ({CH2CO}-[Dap]Y(Carboxymethyl)D[Phe(3-Me)][Phe(2-Me)][Bip]Y[Orn][dL][Dab][Cha]V[Orn]C[Dab][AEEA][Aun]-OH; thioether N-14) | 14.9 nM |

Compounds with a lower IC50, results first:

| IC50 | Structure (SMILES) |
| --- | --- |
| 4.3 nM | Cc1cccc(C[C@@H]2NC(=O)[C@H](CC(=O)O)NC(=O)[C@H](Cc3ccc(OCC(=O)O)cc3)NC(=O)[C@H](CN)NC(=O)CSC[C@@H](C(=O)N[C@@H](CCN)C(=O)NCCOCCOCC(=O)NCCCCCCCCCCC(=O)O)NC(=O)[C@H](CCCN)NC(=O)[C@H](C(C)C)NC(=O)[C@H](CC3CCCCC3)NC(=O)[C@H](CCN)NC(=O)[C@@H](CC(C)C)NC(=O)[C@H](CCCN)NC(=O)[C@H](Cc3ccc(O)cc3)NC(=O)[C@H](Cc3ccc(-c4ccccc4)cc3)NC(=O)[C@H](Cc3ccc(C(=O)O)cc3)NC2=O)c1 [Compound 2060] ({CH2CO}-[Dap]Y(Carboxymethyl)D[Phe(3-Me)][Phe(4-COOH)][Bip]Y[Orn][dL][Dab][Cha]V[Orn]C[Dab][AEEA][Aun]-OH; thioether N-14) |
| 3.9 nM | Cc1cccc(C[C@@H]2NC(=O)[C@H](CC(=O)O)NC(=O)[C@H](Cc3ccc(OCC(=O)O)cc3)NC(=O)[C@H](CN)NC(=O)CSC[C@@H](C(=O)N[C@@H](CCN)C(=O)NCCOCCOCC(=O)NCCCCCCCCCCC(=O)O)NC(=O)[C@H](CCCN)NC(=O)[C@H](C(C)C)NC(=O)[C@H](CC3CCCCC3)NC(=O)[C@H](CCN)NC(=O)[C@@H](CC(C)C)NC(=O)[C@H](CCCN)NC(=O)[C@H](Cc3ccc(OCC(=O)O)cc3)NC(=O)[C@H](Cc3ccc(-c4ccccc4)cc3)NC(=O)[C@H](C(C)C)NC2=O)c1 [Compound 2061] ({CH2CO}-[Dap]Y(Carboxymethyl)D[Phe(3-Me)]V[Bip]Y(Carboxymethyl)[Orn][dL][Dab][Cha]V[Orn]C[Dab][AEEA][Aun]-OH; thioether N-14) |
| 4.9 nM | Cc1cccc(C[C@@H]2NC(=O)[C@H](CC(=O)O)NC(=O)[C@H](Cc3ccc(OCC(=O)O)cc3)NC(=O)[C@H](CN)NC(=O)CSC[C@@H](C(=O)N[C@@H](CCN)C(=O)NCCOCCOCC(=O)NCCCCCCCCCCC(=O)O)NC(=O)[C@H](CCCN)NC(=O)[C@H](C(C)C)NC(=O)[C@H](CC3CCCCC3)NC(=O)[C@H](CCN)NC(=O)[C@@H](CC(C)C)NC(=O)[C@H](CCCN)NC(=O)[C@H](Cc3ccc(O)cc3)NC(=O)[C@H](Cc3ccc(-c4ccccc4)cc3)NC(=O)[C@H](Cc3ccccc3)NC2=O)c1 [Compound 2063] ({CH2CO}-[Dap]Y(Carboxymethyl)D[Phe(3-Me)]F[Bip]Y[Orn][dL][Dab][Cha]V[Orn]C[Dab][AEEA][Aun]-OH; thioether N-14) |
| 4.8 nM | Cc1cccc(C[C@@H]2NC(=O)[C@H](CC(=O)O)NC(=O)[C@H](Cc3ccc(OCC(=O)O)cc3)NC(=O)[C@H](CN)NC(=O)CSC[C@@H](C(=O)N[C@@H](CCN)C(=O)NCCOCCOCC(=O)NCCCCCCCCCCC(=O)O)NC(=O)[C@H](CCCN)NC(=O)[C@H](C(C)C)NC(=O)[C@H](CC3CCCCC3)NC(=O)[C@H](CCN)NC(=O)[C@@H](CC(C)C)NC(=O)[C@H](CCCN)NC(=O)[C@H](Cc3ccc(O)cc3)NC(=O)[C@H](Cc3ccc(-c4ccccc4)cc3)NC(=O)[C@H](Cc3ccc(N)cc3)NC2=O)c1 [Compound 2065] ({CH2CO}-[Dap]Y(Carboxymethyl)D[Phe(3-Me)][Phe(4-NH2)][Bip]Y[Orn][dL][Dab][Cha]V[Orn]C[Dab][AEEA][Aun]-OH; thioether N-14) |
| 6 nM | Cc1cccc(C[C@@H]2NC(=O)[C@H](CC(=O)O)NC(=O)[C@H](Cc3ccc(OCC(=O)O)cc3)NC(=O)[C@H](CN)NC(=O)CSC[C@@H](C(=O)N[C@@H](CCN)C(=O)NCCOCCOCC(=O)NCCCCCCCCCCC(=O)O)NC(=O)[C@H](CCCN)NC(=O)[C@H](C(C)C)NC(=O)[C@H](CC3CCCCC3)NC(=O)[C@H](CCN)NC(=O)[C@@H](CC(C)C)NC(=O)[C@H](CCCN)NC(=O)[C@H](Cc3ccc(O)cc3)NC(=O)[C@H](Cc3ccc(-c4ccccc4)cc3)NC(=O)[C@H](Cc3ccc(C(N)=O)cc3)NC2=O)c1 [Compound 2066] ({CH2CO}-[Dap]Y(Carboxymethyl)D[Phe(3-Me)][Phe(4-CONH2)][Bip]Y[Orn][dL][Dab][Cha]V[Orn]C[Dab][AEEA][Aun]-OH; thioether N-14) |
